Results from patent US12180191B1, “2-[(1H-benzimidazol-2-yl)imino]-5,5-diphenylimidazolidin-4-one as an antimicrobial compound” (KING FAISAL UNIVERSITY, priority 2023, dated 2024).

Tests used:
Assay type in all cases: cell-based
[1] = system: Bacillus cereus; assay: Agar plate disc-diffusion, antibacterial inhibition zone; settings: nutrient agar, 37° C., 48 hours
Experimental: (§1) The agar plate disc-diffusion method was applied. […] The discs were then placed onto the surface of agar plates (nutrient agar for bacteria and Sabouraud's dextrose agar for fungi) seeded with the test organism. Each plate contained 15 mL of the agar medium, previously seeded with 0.2 mL of the broth culture of each organism pregrown for 18 hours. The plates were incubated at 37° C. for 48 hours, and 72 hours for fungi. The inhibition zones were measured in millimeter. Discs impregnated with DMSO were used as a control, and its inhibition zone was subtracted from the tested compound actual inhibition zone.
(§2) The results of the antimicrobial testing can be observed in Tables 1 and 2, below, with ciprofloxacin serving as a reference.

[2] = system: Escherichia coli; assay: as above; settings: nutrient agar, 37° C., 48 hours
Experimental: as §1, §2

[3] = system: Pseudomonas aeruginosa; assay: as above; settings: nutrient agar, 37° C., 48 hours
Experimental: as §1, §2

[4] = system: Staphylococcus aureus; assay: as above; settings: nutrient agar, 37° C., 48 hours
Experimental: (§3) The agar plate disc-diffusion method was applied. Sterilized filter papers (6 mm in diameter) were wetted with 10 μL of a solution of 2-[(1H-benzimidazol-2-yl)imino]-5,5-diphenylimidazolidin-4-one (3) to be tested, containing 10 mg/mL in DMSO, and the discs were allowed to air dry. The discs were then placed onto the surface of agar plates (nutrient agar for bacteria and Sabouraud's dextrose agar for fungi) seeded with the test organism. Each plate contained 15 mL of the agar medium, previously seeded with 0.2 mL of the broth culture of each organism pregrown for 18 hours. The plates were incubated at 37° C. for 48 hours, and 72 hours for fungi. The inhibition zones were measured in millimeter. Discs impregnated with DMSO were used as a control, and its inhibition zone was subtracted from the tested compound actual inhibition zone.
as §2

[5] = system: Aspergillus flavus; assay: Agar plate disc-diffusion, antifungal inhibition zone; settings: Sabouraud's dextrose agar, 72 hours
Experimental: as §3, §2

[6] = system: Chrysosporium keratinophilum; assay: as above; settings: Sabouraud's dextrose agar, 72 hours
Experimental: as §1, §2

[7] = A = concentration of comp. = 10,000 μL
[8] = B = concentration of comp. = 30.000 μL
[9] = C = concentration of comp. = 50,000 μL

| Structure (SMILES) | inhibition zone, Bacillus Cereus [1, 7] [millimeter] | inhibition zone, Bacillus Cereus [1, 8] [millimeter] | inhibition zone, Bacillus Cereus [1, 9] [millimeter] | inhibition zone, Escherichia coli [2, 7] [millimeter] | inhibition zone, Escherichia coli [2, 8] [millimeter] | inhibition zone, Escherichia coli [2, 9] [millimeter] | inhibition zone, Pseudomonas aeruginosa [3, 7] [millimeter] | inhibition zone, Pseudomonas aeruginosa [3, 8] [millimeter] | inhibition zone, Pseudomonas aeruginosa [3, 9] [millimeter] | inhibition zone, Staphylococcus aureus [4, 7] [millimeter] | inhibition zone, Staphylococcus aureus [4, 8] [millimeter] | inhibition zone, Staphylococcus aureus [4, 9] [millimeter] | inhibition zone, Aspergillus flavus [5, 7] [millimeter] | inhibition zone, Aspergillus flavus [5, 8] [millimeter] | inhibition zone, Aspergillus flavus [5, 9] [millimeter] | inhibition zone, Chrysosporium keratinophilum [6, 7] [millimeter] | inhibition zone, Chrysosporium keratinophilum [6, 8] [millimeter] | inhibition zone, Chrysosporium keratinophilum [6, 9] [millimeter] |
| --- | --- | --- | --- | --- | --- | --- | --- | --- | --- | --- | --- | --- | --- | --- | --- | --- | --- | --- |
| O=C(O)c1cn(C2CC2)c2cc(N3CCNCC3)c(F)cc2c1=O [Cip., ciprofloxacin] | 29 | 31 | 42 | 30 | 39 | 60 | 29 | 30 | 53 | 42 | 44 | 53 | 29 | 30 | 42 | 29 | 30 | 53 |
| O=C1N/C(=N/c2nc3ccccc3[nH]2)NC1(c1ccccc1)c1ccccc1 [Compound 3, 2-[(1H-benzimidazol-2-yl)imino]-5,5-diphenylimidazolidin-4-one] | 18 | 24 | 38 | 27 | 36 | 50 | 25 | 32 | 43 | 16 | 20 | 30 | 18 | 23 | 35 | 24 | 29 | 49 |
